Several values for one entry are separate records, joined by “and”; a condition that tells them apart may be missing. Equal entries are not always repeated.
Key:
[1] = Microtensile bond strength of adhesive restoration to sound dentin (Example 2); set-up: species or system human; settings: 5% glutaraldehyde for 5 minutes, versus control (p=0.2395)
Experimental: Effect of an exogenous collagen cross-linking agent on dentin bonding: In order to analyze the contribution of exogenous collagen cross-linking to sound and caries-affected dentin bonding, demineralized dentin surfaces were treated with 5% glutaraldehyde and the restored specimens were subjected to microtensile bond strength testing.
Specimen preparation: Six human molars stored frozen (−20° C.) for less then one month were used. The teeth presented occlusal caries in which enamel was visually intact. The teeth were thawed, cleaned of adhering soft tissues, and the occlusal surfaces were ground flat with #320 and #600 grit Silicon Carbide (Sic) papers under running water to remove the enamel and expose flat middle dentin, respectively. […]
Microtensile bond test (MTB): After 24 hrs in water at 37° C., the teeth were sectioned into 0.7±0.2 mm thick slabs, and the interfaces trimmed to an hourglass shape using a fine diamond bur to produce a cross-sectional area of 1 mm^2. The thickness of the slabs and the width of the trimmed surface were measured using a digital caliper (Fisher Scientific, New Jersey, N.J.) and specimens in sound and caries-affected dentin were obtained. […] MPa were determined by dividing the fracture load by the cross-sectional area of the interface.

[2] = UTS of demineralized dentin after collagenase challenge (Example 7); settings: for UTS, individual specimens / UTS, mean: 1 h 25% GD or 6.5% GSE
Experimental: The data shown below in Tables 7 to 14 and in FIG. 8 describes the effect of grape seed extract and Glutaraldehyde on the tensile strength of demineralized dentin after collagenase challenge. Samples were treated and then subjected to collagenase digestion.

[3] = UTS of demineralized crown dentin tested parallel and perpendicular to dentinal tubules (Example 4); settings: 1 hour
Experimental: Specific synthetic and natural chemicals may increase the number of collagen cross-links within tooth dentin. To evaluate the effects of two cross-linking agents of different concentrations on the UTS of demineralized crown dentin tested parallel and perpendicular to dentinal tubules, the experiment described below was performed. FIG. 6 illustrates the steps of specimen preparation and treatment.
Twenty sound molars were sectioned into 0.5±0.1 mm thick slabs that were further trimmed to 0.5±0.1 mm according to the tubule orientation (parallel-PR or perpendicular-PE). Specimens were demineralized with 10% phosphoric acid and divided into 10 groups according to treatment: control (water solution)/PR; control/PE, 6.5% proanthocyanidin (PA)/PR, 6.5% PA/PE; 0.65% PA/PR; 0.65% PA/PE; 25% glutaraldehyde (GD)/PR; 25% GD/PE; 5% GD/PR; 5% GD/PE. Specimens were kept in their respective solutions for 1 hour. To assess UTS, specimens were subjected to tensile forces at a crosshead speed of 1 mm/min. Statistical analysis was performed using two-way ANOVA and Fisher's PLSD test (p<0.05).

[4] = 24 hrs ammonium bicarbonate buffer, no collagenase
[5] = 24 hrs collagenase 100 ug/ml + ammonium bicarbonate buffer

## O=CCCCC=O [GD, glutaraldehyde]
[1]
  effect on bond strength: no significant effect
[2]; [4]
  UTS, individual specimens: 16.93 Mpa and 5.28 Mpa and 9.86 Mpa and 9.57 Mpa and 7.56 Mpa and 8.24 Mpa and 8.76 Mpa and 5.66 Mpa and 7.99 Mpa and 11.97 Mpa and 8.93 Mpa and 7.60 Mpa and 8.38 Mpa
  UTS, mean: 8.98 Mpa and 8.99 Mpa
[2]; [5]
  UTS, individual specimens: 10.31 Mpa and 16.54 Mpa and 8.71 Mpa and 8.46 Mpa and 5.59 Mpa and 8.18 Mpa and 9.27 Mpa and 12.33 Mpa and 17.30 Mpa and 7.74 Mpa and 9.75 Mpa and 6.29 Mpa and 16.53 Mpa
  UTS, mean: 10.54 Mpa
[2]; strength values versus baseline (no collagenase treatment), control groups fully digested
  effect of collagenase digestion on treated demineralized dentin: not affected by the collagenase treatment
[3]; 5% GD, tested Parallel to dentinal tubules
  UTS: 9.8 ± 1.5^BCD,b MPa
[3]; 5% GD, tested Perpendicular to dentinal tubules
  UTS: 15.7 ± 4.9^BCD,a MPa
[3]; 25% GD, tested Parallel to dentinal tubules
  UTS: 10.7 ± 2.7^B,b MPa
[3]; 25% GD, tested Perpendicular to dentinal tubules
  UTS: 18.6 ± 5.7^B,a MPa

Reference: US20090123581A1, “COLLAGEN CROSS-LINKING AGENTS ON DENTAL RESTORATIVE TREATMENT AND PREVENTIVE DENTISTRY” (THE BOARD OF TRUSTEES OF THE UNIVERSITY OF ILLINOIS, priority 2006, published 2009)
